Measurements: patent publication US6455714B1, “Labeled vitamin D compounds and the use thereof” (A & D BioScience, Inc., priority 1995, dated 2002)
Like-named read-outs stand apart in the source and are kept apart here.

Legend:
DBP [1] = target: T1, DBP (Homo sapiens, UniProt P02774); assay: Checkerboard titration (ELISA) of DBP and compound C to obtain a colorimetric signal; type: binding; details: with minimum 6.25 ng DBP; color determined visually
T1 construct: purchased Calbiochem, San Diego, Calif
T1 sequence (P02774 17-474): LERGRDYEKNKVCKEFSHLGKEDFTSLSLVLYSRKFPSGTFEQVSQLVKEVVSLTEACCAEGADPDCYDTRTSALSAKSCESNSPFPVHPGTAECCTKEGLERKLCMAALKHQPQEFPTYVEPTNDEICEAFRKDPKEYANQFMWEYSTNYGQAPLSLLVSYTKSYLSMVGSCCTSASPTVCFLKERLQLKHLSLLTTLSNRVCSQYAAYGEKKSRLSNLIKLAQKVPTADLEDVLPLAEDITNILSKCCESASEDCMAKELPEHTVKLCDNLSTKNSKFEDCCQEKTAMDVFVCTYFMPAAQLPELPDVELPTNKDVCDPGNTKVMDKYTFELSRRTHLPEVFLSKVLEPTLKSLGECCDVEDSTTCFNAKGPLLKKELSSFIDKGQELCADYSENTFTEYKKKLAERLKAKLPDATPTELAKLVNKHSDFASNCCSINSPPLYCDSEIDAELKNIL
Method: The method involves attachment of DBP to an ELISA plate followed by the addition of a known quantity of 25-OH-D3-biotin conjugate (compound C). […] Excess amount of C is washed off, and an excess of avidin is added which gets bound to biotin attached to 25-OH-D3. The plate is then incubated in sequence with anti-avidin antibody, a secondary antibody coupled to horseradish peroxidase (HRP), and ABTS (2,2′-azino-di-(3-ethylbenzthiazoline)sulfonate, the substrate that produces a […] color which may be monitored spectrophotometrically or visually. The intensity (absorbance) of the color is directly proportional to the concentration of compound C. In the first experiment, the optimal concentrations of DBP and compound C to develop color were determined (visually). In this experiment, each sample of DBP was tested against each amount of compound C.
A. Determination of the Optimal Amount of DBP and Compound (C) in a Checkerboard Titration (ELISA) to obtain a Colorimetric Signal
Add different amounts of purified hDBP (From Calbiochem, San Diego, Calif., in 100 mM Na2CO3 buffer, pH 8.4) to wells of an ELISA plate
Block excess sites with BSA (1 mg/ml, 300 μl)
↓ wash with PBS containing 0.05% TWEEN 20
Add different amounts of C in EtOH
Wash with PBS containing 0.05% TWEEN 20 (Biorad, Richmond, Calif.) […]
Color development detected visually or spectrophotometrically.

[2] = target: T2, Human Vitamin D-binding Protein (hDBP) (Homo sapiens, UniProt P02774)
T2 sequence (P02774 17-474): T1 sequence (P02774 17-474)
Method: Competitive Radioligand Binding Assays of Aanalogs (C) and (F) with Human Vitamin D-binding Protein (hDBP)
These assays were carried out to determine the viability of these synthetic analogs to serve as substrates for hDBP.

DBP [3] = target: T1, DBP; assay: ELISA to demonstrate that compound C can be competed out with 25-OH-D3; type: binding; details: 2 μg 25-OH-D3 added with C (30, 60, 120 ng); triplicate
Method: In the next experiment, it was determined whether it would be possible to displace compound C, bound to DBP (which is attached to an ELISA plate), with a known concentration of 25-OH-D3. In a real sample, one will be measuring the amount of 25-OH-D and not that of compound C.
Procedure: same as before, except either C, or C and 2 μg of 25-OH-D3 were added to each plate. Each concentration (point) was done in triplicate. The blank contained no 25-OH-D3 or C.
Furthermore, the amount of compound C is […] to the concentration of added 25-OH-D3.

Compound: C=C1CC[C@H](OCCCNC(=O)CCCCCNC(=O)CCCC[C@@H]2SC[C@@H]3NC(=O)N[C@@H]32)C/C1=C/C=C1\CCC[C@]2(C)[C@@H]([C@H](C)CCCC(C)(C)O)CC[C@@H]12 [C, Conjugate of 25-OH-D3-3-Aminopropyl Ether and Biotin-X-NHS]
- minimum amount required to obtain yellow color (DBP [1]): 30 ng
- ability to replace 25-OH-D3 for DBP binding [2]: can replace 25-OH-D3 for DBP binding
- times less efficient than 25-OH-D3 in displacing 3H-25-OH-D3 bound to hDBP [2]: ~11 times

Compound: C=C1CC[C@H](O)C/C1=C/C=C1\CCC[C@]2(C)[C@@H]([C@H](C)CCCC(C)(C)O)CC[C@@H]12 [Compound 25-OH-D3, 25-hydroxyvitamin D3]
- displacement of compound C bound to DBP on an ELISA plate (color development) (DBP [3]): capable of displacing compound C bound to DBP

Compound: Biotin conjugate of 25-OH-D3-3-aminopropyl-3-(6-amino) hexanoic acid
- ability to replace 25-OH-D3 for DBP binding ([2]; FIG. 1): can replace 25-OH-D3 for DBP binding
